{
  "source": "paper PMC8506967",
  "about": "“Binding specificity and function of the SWI/SNF subunit SMARCA4 bromodomain interaction with acetylated histone H3K14” (The Journal of Biological Chemistry, 2021)",
  "key": {"BAZ2B BD": {"target": "T1, BAZ2B BD (Homo sapiens, UniProt Q9UIF8)", "T1 sequence (Q9UIF8 2060-2164 limits assumed)": "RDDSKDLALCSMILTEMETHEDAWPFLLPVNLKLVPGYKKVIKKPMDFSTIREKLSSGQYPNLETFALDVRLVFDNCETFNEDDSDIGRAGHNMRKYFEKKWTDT", "assay": "ITC, BAZ2B bromodomain", "assay_type": "binding", "details": "BAZ2B wt, GST +, 293 or 298 K, 10 mM HEPES, 100 mM NaCl, 2.5% glycerol, pH 7.3"}, "four family VIII BD": {"tested_on": "four family VIII BD", "details": "cited from earlier work", "source_text": "How SMARCA4 targets, is recruited to, and interacts with chromatin substrates to induce ATP-dependent nucleosome remodeling has been a long-standing question. Recent structures of the SMARCA4 catalytic-core domain in complex with a nucleosome core particle, as well as a nucleosome-bound SWI/SNF complex comprising SMARCA4 and nine auxiliary subunits, provided insights into the mechanism of SWI/SNF remodeling ([25], [26]). But the structural basis underlying SMARCA4 recognition of its histone tail target has remained elusive despite the existence of SMARCA4 structures in the apo state ([1], [27] ..."}, "ASH1L-BD": {"tested_on": "ASH1L-BD", "details": "cited from earlier work"}, "SMARCA4": {"tested_on": "SMARCA4", "details": "C-terminal BD motif; cited from earlier work", "source_text": "SMARCA4/BRG1 is an essential catalytic core subunit of the roughly two-megadalton Switch/Sucrose Nonfermenting (SWI/SNF) multiprotein complex, which uses the energy of ATP hydrolysis to remodel chromatin by perturbing interactions between histone core particles and DNA ([14], [15]). SMARCA4 can remodel nucleosomal substrates by itself in vitro ([16], [17]) and is functionally and structurally conserved among eukaryotes ([14], [18])."}, "HsPBRM-1 BD(5)": {"tested_on": "HsPBRM-1 BD(5)", "details": "PBRM-1 BD(5); cited from earlier work", "source_text": "We superimposed each family VIII BD structure onto the CeSMARCA4-BD structure and plotted the deviation for each residue (Fig. 5D and Fig. S2). […] The overall roo ..."}, "[1]": {"tested_on": "Saccharomyces cerevisiae Sth1 (ScSth1) BD", "details": "cited from earlier work", "source_text": "How SMARCA4 targets, is recruited to, and interacts with chromatin substrates to induce ATP-dependent nucleosome remodeling has been a long-standing question. Recent structures of the SMARCA4 catalytic-core domain in complex with a nucleosome core particle, as well as a nucleosome-bound SWI/SNF complex comprising SMARCA4 and nine auxiliary subunits, provided insights into the mechanism of SWI/SNF remodeling ([25], [26]). […] Water-mediated hydrogen bonds stabilize the interaction between H3R17 and Tyr1270 on the αC-helix. || We next asked if the SMARCA4-specific residues are also conserved in other family VIII BDs that bind H3K14ac. […] PBRM-1 is an SWI/SNF accessory protein in the PBAF complex that contains six tandem N-terminal BDs ([42]). The second and fourth PBRM-1 BDs (BD(2) and BD(4)) bind H3K14ac ([43], [44]). Due to the low sequence homology outside of the central α A and αB helices ([1]), we aligned the family VIII BDs based on the superposition of their structures and added CeSMARCA4 to the alignm ..."}, "PBRM-1 BD(2) and BD(4)": {"tested_on": "PBRM-1 BD(2) and BD(4)", "details": "cited from earlier work", "source_text": "(§1) We next asked if the SMARCA4-specific residues are also conserved in other family VIII BDs that bind H3K14ac. […] PBRM-1 is an SWI/SNF accessory protein in the PBAF complex that contains six tandem N-terminal BDs ([42]). The second and fourth PBRM-1 BDs (BD(2) and BD(4)) bind H3K14ac ([43], [44]). Due to the low sequence homology outside of the central α A and αB helices ([1]), we aligned the family VIII BDs based on the superposition of their structures and added CeSMARCA4 to the alignm ..."}, "SMARCA2": {"tested_on": "SMARCA2", "details": "cited from earlier work", "source_text": "as §1"}, "PBRM-1": {"tested_on": "PBRM-1", "details": "cited from earlier work", "source_text": "as §1"}, "[2]": {"target": "T2, CeSMARCA4 BD with the GST tag cleaved off (ITC) (C. elegans, UniProt G5EF53 1179-1289)", "T2 construct": "SWSN-4 (CeSMARCA4), C. elegans, bromodomain; the Asp1179-Asn1289 construct is the one named for ITC; A protease site and cleavage are described only for the crystallisation construct (K1176-E1296, F1287S); also called CeSMARCA4 bromodomain, GST tag removed; source: E. coli BL21 (DE3), purified, GST tag cleaved off; not shown: GST, N-terminal, cleaved", "T2 sequence (looked up)": "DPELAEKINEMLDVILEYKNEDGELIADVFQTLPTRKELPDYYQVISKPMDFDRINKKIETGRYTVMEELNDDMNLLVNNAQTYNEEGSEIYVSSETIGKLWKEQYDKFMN", "assay": "ITC; MicroCal Auto-iTC200, 293 or 298 K, 10 mM HEPES, 100 mM NaCl, 2.5% glycerol, pH 7.3; protein 50–100 μM in the cell, peptide 500–1000 μM in the syringe; single-site binding model", "details": "both partners purified"}, "[3]": {"target": "T3, CeSMARCA4 GST–BD fusion (C. elegans SMARCA4/SWSN-4 bromodomain, residues D1179–N1289, GST-tagged) (C. elegans, UniProt G5EF53 1179-1289)", "T3 construct": "SWSN-4 (CeSMARCA4, ortholog of human SMARCA4/BRG1), C. elegans, bromodomain, residues D1179-N1289; Cloned from Bristol N2 cDNA into a pGEX vector; also called GST-CeSMARCA4; CeSMARCA4 BD; source: E. coli BL21 (DE3), purified (Glutathione Sepharose 4B, eluted with reduced glutathione, dialysed); not shown: GST, N-terminal, kept", "T3 sequence (looked up)": "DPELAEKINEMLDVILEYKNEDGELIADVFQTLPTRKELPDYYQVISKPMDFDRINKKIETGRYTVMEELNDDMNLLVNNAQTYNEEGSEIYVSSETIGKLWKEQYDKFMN", "assay": "ITC; MicroCal Auto-iTC200, 293 or 298 K, 10 mM HEPES, 100 mM NaCl, 2.5% glycerol, pH 7.3; protein 50–100 μM in the cell, peptide 500–1000 μM in the syringe; single-site binding model", "details": "both partners purified"}, "[4]": {"target": "T4, CeSMARCA4 BD crystallisation construct (residues Lys1176–Glu1296, Phe1287Ser) (C. elegans, UniProt G5EF53 1176-1296, Phe1287Ser)", "T4 construct": "SWSN-4 (CeSMARCA4), C. elegans, bromodomain, residues Lys1176-Glu1296 with the point mutation Phe1287Ser; pGEX-6P-1 vector with an HRV 3C protease site; also called untagged CeSMARCA4 BD; source: E. coli BL21 (DE3), purified (Glutathione Sepharose, PreScission cleavage, Q Sepharose, Sephacryl S-200); not shown: GST, N-terminal, cleaved", "T4 sequence (looked up)": "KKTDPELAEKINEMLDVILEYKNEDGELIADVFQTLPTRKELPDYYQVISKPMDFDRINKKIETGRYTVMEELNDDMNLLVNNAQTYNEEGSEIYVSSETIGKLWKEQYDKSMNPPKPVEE", "assay": "crystal structure; BD incubated with 2:1 M excess H3_(7–20)K14ac peptide at 4 °C, sitting-drop vapor diffusion, 35% PEG smear; 1.29 Å, space group P4_(1)2_(1)2", "details": "both partners purified"}, "human BAZ2B bromodomain": {"target": "T5, human BAZ2B bromodomain (human)", "T5 chain": "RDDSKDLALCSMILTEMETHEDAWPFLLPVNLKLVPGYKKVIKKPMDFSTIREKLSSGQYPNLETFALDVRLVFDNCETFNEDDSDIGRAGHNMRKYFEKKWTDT", "assay": "ITC"}},
  "note": "Ends that are not written are not given here.",
  "data": [
    {"molecule": "CC(=O)NCCCC[C@H](NC(=O)CNC(=O)CNC(=O)[C@@H](NC(=O)[C@H](CO)NC(=O)[C@H](CCCCN)NC(=O)[C@H](CCCNC(=N)N)NC(=O)[C@H](C)N)[C@@H](C)O)C(=O)N[C@@H](C)C(=O)N1CCC[C@H]1C(=O)N[C@@H](CCCNC(=N)N)C(=O)N[C@@H](CCCCN)C(=O)N[C@@H](CCC(N)=O)C(=O)N[C@@H](CC(C)C)C(=O)O", "note": "[H3_7–20K14ac]", "values": [
      {"measurement": "Kd", "setting": "BAZ2B BD", "result": "12.1 ± 0.2", "unit": "µM"}
    ]},
    {"molecule": "O=C(/C=C/N1C[C@H]2C[C@@H]1CN2c1ccccn1)c1ccccc1O", "note": "[PFI-3]", "values": [
      {"measurement": "selectivity of chemical probe", "setting": "four family VIII BD", "result": "selective for four family VIII BD"}
    ]},
    {"molecule": "H3K14ac: lysine 14 acetylation on histone H3 (ARKSTGGKAPRKQL; not fully specified (residue 8); also: K14 acetylation, chain position not given here)", "values": [
      {"measurement": "H3K14ac binding", "setting": "ASH1L-BD", "result": "unable to bind"},
      {"measurement": "H3K14ac recognition", "setting": "SMARCA4", "result": "capable of recognizing"},
      {"measurement": "H3K14ac binding", "setting": "HsPBRM-1 BD(5)", "result": "cannot bind"},
      {"measurement": "binding of mutated H3 peptide / acetylated mark to ScSth1 BD", "setting": "[1]", "result": "binds more promiscuously"},
      {"measurement": "selective H3K14ac binding", "setting": "[1]", "result": "reported to selectivity bind"},
      {"measurement": "H3K14ac binding", "setting": "PBRM-1 BD(2) and BD(4)", "result": "bind"},
      {"measurement": "selective H3K14ac binding", "setting": "SMARCA2", "result": "reported to selectivity bind"},
      {"measurement": "selective H3K14ac binding", "setting": "PBRM-1", "result": "reported to selectivity bind"}
    ]},
    {"molecule": "ARKSTGGK(Ac)APRKQL (peptide, UniProt P68431 8-21, looked up, histone H3 N-terminal tail, residues 7-20; also called H3K14ac peptide)", "note": "[histone H3_(7–20)K14ac peptide]", "values": [
      {"measurement": "Kd", "setting": "[2]", "result": "23.4 ± 0.8", "unit": "µM"},
      {"measurement": "Kd", "setting": "[3]", "result": "11.6 ± 0.1", "unit": "µM"},
      {"measurement": "binding result", "setting": "[4]", "result": "binds"},
      {"measurement": "Kd", "setting": "human BAZ2B bromodomain", "result": 12.1, "unit": "µM"}
    ]}
  ]
}
